Values of other authors, collected in patent publication US20190151262A1, “USE OF N-ACETYLCYSTEINE AMIDE FOR DECREASING INTRACRANIAL PRESSURE” (priority 2013, published 2019).

System: intra-cranial pressure
Conditions: previously tried anti-oxidant; Thomale et al. Intensive Care Med. 32:149-155 (2006)

CC(=O)N[C@@H](CS)C(=O)O [NAC, n-acetylcysteine]
decrease of intra-cranial pressure: no success
